Source: patent US12138256B2, “Treatment of cardiopulmonary disorders” (Bayer Aktiengesellschaft, priority 2021, dated 2024)
Several values for one entry are separate records, joined by “and”; a condition that tells them apart may be missing. Equal values may be shown once.

What was measured:
[1] = test system: thromboxane analog U46619 induced PAH in minipigs; experiment: Haemodynamics (PAP, BP) in the anesthetized thromboxane challenged PAH minipig after inhaled (nebulized) application (C-2.1); type: in vivo, Göttingen minipig; settings: 10 μg/kg nominal dose, inhaled, n = 3
Description: Experiments were carried out in anesthetized Göttingen minipigs, anesthetized rats and conscious, telemetrically instrumented dogs. Acute pulmonary hypertension was induced for example by infusion of a thromboxane A2 analogon, by acute hypoxia treatment or hypoxia treatment over a number of weeks and/or by administration of monocrotaline. Test substances were applied via nebulization using the Nebutec® or Aeroneb® Pro nebulizer system, and/or by means of powder and/or solution applicators for experimental intratracheal administration (Liquid MicroSprayer®, Dry Powder Insufflator™, MicroSprayer®, Penn-Century Inc., Wyndmoor, PA, USA) or after solid nebulization inserted into the inspiration arm of the ventilation. Compounds were employed as solids or solutions depending on the molecular structure and the technical possibility depending on the experiment. The haemodynamic signals were recorded and evaluated by means of pressure transducers/amplifiers (Combitransducer B. Braun, Melsungen, Germany or CardioMEMS Inc., Atlanta, GA, USA) and Ponemah® or CardioMems® as data aquisition software. After long-term experiments (for example monocrotaline rat), it is also possible to carry out a histological evaluation.
Healthy Gottingen Minipigs® Ellegaard (Ellegaard, Denmark) of both sexes and having a weight of 2-6 kg were used. The animals were sedated by i.m. administration of about 25 mg/kg ketamine and about 10 mg/kg azaperone. Anaesthesia was initiated by i.v. administration of about 2 mg/kg ketamine and about 0.3 mg/kg midazolam. Maintenance of anaesthesia was by i.v. administration of about 7.5-30 mg/kg/h ketamine and about 1-4 mg/kg/h midazolam (rate of infusion 1-4 ml/kg/h) and about 150 μg/kg/h pancuronium bromide (for example Pancuronium-Actavis). After intubation, the animals were ventilated by the ventilator at a constant respiratory volume (10-12 ml/kg, 35 breaths/min; Avea®, Viasys Healthcare, USA, or Engstrom Carestation, GE Healthcare, Freiburg, Germany) such that an end-tidal CO2 concentration of about 5% was achieved. Ventilation was performed with room air, enriched with about 40% oxygen (normoxia). For the measurement of the haemodynamic parameters such as pulmonary arterial pressure (PAP), blood pressure (BP) and heart rate (HR), catheters were inserted into the carotid artery to measure the blood pressure, and a Swan-Ganz® catheter was introduced in a flow-directed manner via the jugular vein into the pulmonary artery. The haemodynamic signals were recorded and evaluated by means of pressure transducers (Combitransducer, B. Braun, Melsungen, Germany)/amplifiers and Ponemah® as data aquisition software.
After the instruments have been placed into the animals, continuous infusion of a thromboxane A2 analog was initiated to increase the pulmonary arterial pressure. […] D0400, or Cayman Chemical Company, cat. no. 16440), dissolved in physiological saline, were infused to achieve an increase of the mean pulmonary arterial pressure to values of over 25 mmHg. 30 minutes after the start of the infusion, a plateau was reached, and the experiment was started.
The test substances were administered as i.v. infusion or by inhalation. For the preparation of the solution for inhalation, the following procedure was adopted: For an animal having a weight of 4 kg, to prepare the stock solution (300 μg/kg), 1.2 mg of the test compound were weighed out and dissolved in a total volume of 3 ml (1% DMSO, 99% 0.2% strength citric acid solution, 1 N aqueous sodium hydroxide solution to adjust the pH to 8). The solution was then diluted to the concentration employed using 0.2% strength citric acid which had been adjusted to pH 8 beforehand with aqueous sodium hydroxide solution. In each test, 3 ml of the solution of test compound per 4 kg animal were nebulized in the inhalation arm of the respiratory circuit using the Aeroneb® Pro nebulizer system. The mean nebulization time was about 7 min from the start of the nebulization.

[2] = test system: anesthetized PAH minipigs; experiment: PAH minipig model: intratracheal application of dry powder formulations and different hydrates (PennCentury insufflator); type: in vivo, Göttingen minipig; settings: for BP (mean) / PAP(mean) / BP % changes vs. prevalues / PAP % changes vs. prevalues: 375 μg/kg i.t.; for BP (mean) / PAP(mean): absolute values; for BP % changes vs. prevalues / PAP % changes vs. prevalues: each animal
Source text: After characterization of the effects of comparative example 11 after nebulization of compound solutions, in a further step the effects of crystalline forms of comparative example 11, e.g. sesquihydrate, e.g. example 6e on PAP and BP after inhaled application of different dry powder lactose formulations (table C2.1.8) were studied in anesthetized PAH minipigs.
As reference pure Lactose vehicle was applied in the beginning of each experiment.

CC#CCC(C)[C@H](O)/C=C/[C@@H]1[C@H]2C/C(=C/CCCC(=O)O)C[C@H]2C[C@H]1O (stereo partly shown) [Ventavis ®]
PAP % changes vs prevalue, mean ([1]; time 0 min): 0% | PAP % changes vs prevalue, mean ([1]; time 10 min): −30.3% | PAP % changes vs prevalue, mean ([1]; time 20 min): −20.7% | PAP % changes vs prevalue, mean ([1]; time 30 min): −6.9% | PAP % changes vs prevalue, mean ([1]; time 40 min): 1.7% | PAP % changes vs prevalue, mean ([1]; time 50 min): 4.9%

O.O=C(O)c1ccc(CCN(CCc2ccccc2OCc2ccc(-c3ccc(C(F)(F)F)cc3)cc2Cl)[C@H]2CCCc3nc(C(=O)O)ccc32)cc1.O=C(O)c1ccc(CCN(CCc2ccccc2OCc2ccc(-c3ccc(C(F)(F)F)cc3)cc2Cl)[C@H]2CCCc3nc(C(=O)O)ccc32)cc1 [example 6a, (5S)-{[2-(4-Carboxyphenyl)ethyl][2-(2-{[3-chloro-4′-(trifluoromethyl)biphenyl-4-yl]methoxy}phenyl)-ethyl]amino}-5,6,7,8-tetrahydroquinoline-2-carboxylic acid semihydrate]
efficacy with regard to PAP reduction as well as systemic BP reduction ([2]; 1.5 mg/4 kg (=375 μg/kg) intratracheally, micronized): comparable efficacy | BP (mean) ([2]; time 0): 101 mmHg and 85 mmHg | PAP(mean) ([2]; time 0): 39.6 mmHg and 40.8 mmHg and 38.5 mmHg | BP (mean) ([2]; time 10): 103 mmHg and 83 mmHg and 79 mmHg | PAP(mean) ([2]; time 10): 40.2 mmHg and 41.1 mmHg | BP (mean) ([2]; time 20): 101 mmHg and 83 mmHg and 84 mmHg | PAP(mean) ([2]; time 20): 40.4 mmHg and 41.3 mmHg | BP (mean) ([2]; time 30): 100 mmHg and 81 mmHg and 88 mmHg | PAP(mean) ([2]; time 30): 40.2 mmHg and 41.3 mmHg | BP (mean) ([2]; time 40): 98 mmHg and 81 mmHg and 90 mmHg | PAP(mean) ([2]; time 40): 40.4 mmHg and 41.8 mmHg and 41.0 mmHg | BP (mean) ([2]; time 50): 99 mmHg and 78 mmHg and 89 mmHg | PAP(mean) ([2]; time 50): 40.7 mmHg and 41.7 mmHg and 40.9 mmHg | BP % changes vs. prevalues ([2]; time 50): 99.6% and 98.4% and 100.6% | PAP % changes vs. prevalues ([2]; time 50): 99.3% and 98.7% and 98.9% | BP (mean) ([2]; time 60): 100 mmHg and 79 mmHg and 86 mmHg | PAP(mean) ([2]; time 60): 41.2 mmHg and 42.0 mmHg and 40.9 mmHg | BP % changes vs. prevalues ([2]; time 60): 100.6% and 99.7% and 97.2% | PAP % changes vs. prevalues ([2]; time 60): 100.7% and 99.4% and 99.2% | BP (mean) ([2]; time 70): 102 mmHg and 78 mmHg and 87 mmHg | PAP(mean) ([2]; time 70): 38.8 mmHg and 40.6 mmHg and 40.1 mmHg | BP % changes vs. prevalues ([2]; time 70): 102.6% and 98.4% (2×) | PAP % changes vs. prevalues ([2]; time 70): 94.7% and 96.1% and 97.0% | BP (mean) ([2]; time 80): 102 mmHg and 79 mmHg and 90 mmHg | PAP(mean) ([2]; time 80): 34.1 mmHg and 39.9 mmHg and 37.7 mmHg | BP % changes vs. prevalues ([2]; time 80): 102.6% and 99.7% and 101.8% | PAP % changes vs. prevalues ([2]; time 80): 83.4% and 94.5% and 91.2% | BP (mean) ([2]; time 90): 101 mmHg and 81 mmHg and 92 mmHg | PAP(mean) ([2]; time 90): 30.1 mmHg and 37.7 mmHg and 36.6 mmHg | BP % changes vs. prevalues ([2]; time 90): 101.6% and 102.2% and 104.0% | PAP % changes vs. prevalues ([2]; time 90): 73.4% and 89.2% and 88.7% | BP (mean) ([2]; time 100): 100 mmHg and 80 mmHg and 95 mmHg | PAP(mean) ([2]; time 100): 28.3 mmHg and 35.9 mmHg and 35.0 mmHg | BP % changes vs. prevalues ([2]; time 100): 100.6% and 101.0% and 107.4% | PAP % changes vs. prevalues ([2]; time 100): 69.0% and 85.0% and 84.7% | BP (mean) ([2]; time 110): 99 mmHg and 79 mmHg | PAP(mean) ([2]; time 110): 27.2 mmHg and 34.8 mmHg and 34.0 mmHg | BP % changes vs. prevalues ([2]; time 110): 99.6% and 99.7% and 111.9% | PAP % changes vs. prevalues ([2]; time 110): 66.5% and 82.4% and 82.1% | BP (mean) ([2]; time 120): 99 mmHg and 79 mmHg and 96 mmHg | PAP(mean) ([2]; time 120): 26.4 mmHg and 34.1 mmHg and 32.9 mmHg | BP % changes vs. prevalues ([2]; time 120): 99.6% and 99.7% and 108.6% | PAP % changes vs. prevalues ([2]; time 120): 64.4% and 80.8% and 79.7% | BP (mean) ([2]; time 130): 98 mmHg and 81 mmHg and 97 mmHg | PAP(mean) ([2]; time 130): 25.7 mmHg and 33.7 mmHg and 31.7 mmHg | BP % changes vs. prevalues ([2]; time 130): 98.6% and 102.2% and 109.7% | PAP % changes vs. prevalues ([2]; time 130): 62.8% and 79.9% and 76.7% | BP (mean) ([2]; time 140): 99 mmHg and 82 mmHg and 98 mmHg | PAP(mean) ([2]; time 140): 25.3 mmHg and 33.2 mmHg and 31.3 mmHg | BP % changes vs. prevalues ([2]; time 140): 99.6% and 103.5% and 110.8% | PAP % changes vs. prevalues ([2]; time 140): 61.8% and 78.7% and 75.7% | BP (mean) ([2]; time 150): 97 mmHg and 82 mmHg | PAP(mean) ([2]; time 150): 25.0 mmHg and 32.9 mmHg and 30.7 mmHg | BP % changes vs. prevalues ([2]; time 150): 97.6% and 103.5% and 109.7% | PAP % changes vs. prevalues ([2]; time 150): 60.9% and 78.0% and 74.3% | PAP(mean) ([2]; time 160): 24.5 mmHg and 32.5 mmHg and 30.2 mmHg | BP % changes vs. prevalues ([2]; time 160): 96.6% and 102.2% and 109.7% | PAP % changes vs. prevalues ([2]; time 160): 59.9% and 77.1% and 73.1% | BP % changes vs. prevalues ([2]; time 170): 95.6% and 99.7% and 107.4% | PAP % changes vs. prevalues ([2]; time 170): 58.6% and 76.7% and 72.3% | BP % changes vs. prevalues ([2]; time 180): 94.6% and 99.7% and 106.3% | PAP % changes vs. prevalues ([2]; time 180): 58.0% and 75.4% and 71.8% | BP % changes vs. prevalues ([2]; time 190): 94.6% and 108.5% and 105.2% | PAP % changes vs. prevalues ([2]; time 190): 59.5% and 78.4% and 70.7% | BP % changes vs. prevalues ([2]; time 200): 92.6% and 107.3% and 104.0% | PAP % changes vs. prevalues ([2]; time 200): 60.5% and 76.8% and 71.1% | BP % changes vs. prevalues ([2]; time 210): 90.6% and 102.2% and 102.9% | PAP % changes vs. prevalues ([2]; time 210): 60.6% | BP (mean) ([2]; time −10): 99 mmHg and 85 mmHg and 86 mmHg | PAP(mean) ([2]; time −10): 38.7 mmHg and 40.6 mmHg
